Entries after “also recorded” stand apart in the source; their conditions may differ.
What was measured:
InhA [1] = target: T1, InhA (Mycobacterium tuberculosis, UniProt P9WGR1); test: Spectrophotometric (340 nm) assay of InhA-catalyzed NADH-dependent reduction, substrate test and steady-state kinetics
InhA [2] = target: T1, InhA; test: Microcalorimetry binding of adenine dinucleotides to InhA; set-up: species or system M. tuberculosis; conditions: for binding to InhA (in words): microcalorimetry, dinucleotide 0-100 μM
[3] = test system: Brassica enoyl-ACP reductase; conditions: read-out: steady-state Michaelis constant; cited from earlier work
[4] = test system: NADH-dependent enoyl-CoA reductase of M. smegmatis; conditions: read-out: steady-state Michaelis constant; cited from earlier work
[5] = test system: mycolic acid biosynthesis; type: biochemical, M. smegmatis
[6] = test system: NC(=O)C1=CN([C@@H]2O[C@H](COP(=O)(O)OP(=O)(O)OC[C@H]3O[C@@H](n4cnc5c(N)ncnc54)[C@H](O)[C@@H]3O)[C@@H](O)[C@H]2O)C=CC1; test: purified protein, by the assay type; conditions: other: InhA-catalyzed reduction of 2-transoctenoyl-ACP, other substrate saturating

T1 sequence (P9WGR1 whole entry, looked up): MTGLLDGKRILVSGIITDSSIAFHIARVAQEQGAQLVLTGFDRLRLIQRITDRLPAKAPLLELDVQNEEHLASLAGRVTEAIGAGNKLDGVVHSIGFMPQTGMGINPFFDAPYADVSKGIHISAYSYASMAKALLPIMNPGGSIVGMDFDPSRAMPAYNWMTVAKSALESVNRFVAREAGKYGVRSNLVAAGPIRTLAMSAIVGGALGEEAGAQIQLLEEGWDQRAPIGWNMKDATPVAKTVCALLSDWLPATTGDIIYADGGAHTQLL

2-transoctenoyl-ACP
maximum velocity (InhA [1]; InhA-catalyzed reduction of 2-transoctenoyl-ACP by NADH): 1570 µM/min/mg
activity as substrate for InhA in the presence of NADH (InhA [1]; measured spectrophotometrically at 340 nm): Activity was demonstrated
Km (InhA [1]; read-out: steady-state Km, InhA-catalyzed reduction of 2-transoctenoyl-ACP, other substrate saturating): 2 µM

NC(=O)C1=CN([C@@H]2O[C@H](COP(=O)(O)OP(=O)(O)OC[C@H]3O[C@@H](n4cnc5c(N)ncnc54)[C@H](O)[C@@H]3O)[C@@H](O)[C@H]2O)C=CC1 [NADH]
binding stoichiometry, molecules per dimer of InhA (InhA [2]; 37° C., 50 mM Tris pH 7.3): two
enthalpy of binding (InhA [2]; 37° C., 50 mM Tris pH 7.3): -13.5 kcal/mol
binding to InhA (in words) (InhA [2]): tight and stoichiometric binding
Kd (InhA [2]; titration calorimetry, 37° C., 50 mM Tris pH 7.3, 100 μM InhA, read-out: Kd (binding constant) for binding to InhA): 2000 nM
Km [3]: 7.6 µM
Km [4]: 21 µM

NC(=O)C1=CN([C@@H]2O[C@H](COP(=O)(O)OP(=O)(O)OC[C@H]3O[C@@H](n4cnc5c(N)ncnc54)[C@H](OP(=O)(O)O)[C@@H]3O)[C@@H](O)[C@H]2O)C=CC1 [NADPH]
binding to InhA (in words) (InhA [2]): Neither NADPH, NADP nor NAD exhibited significant binding; also recorded: failed to show appreciable binding affinity

NC(=O)c1ccc[n+]([C@@H]2O[C@H](COP(=O)([O-])OP(=O)(O)OC[C@H]3O[C@@H](n4cnc5c(N)ncnc54)[C@H](OP(=O)(O)O)[C@@H]3O)[C@@H](O)[C@H]2O)c1 [NADP]
binding to InhA (in words) (InhA [2]): Neither NADPH, NADP nor NAD exhibited significant binding; also recorded: failed to show appreciable binding affinity

NC(=O)c1ccc[n+]([C@@H]2O[C@H](COP(=O)([O-])OP(=O)(O)OC[C@H]3O[C@@H](n4cnc5c(N)ncnc54)[C@H](O)[C@@H]3O)[C@@H](O)[C@H]2O)c1 [NAD]
binding to InhA (in words) (InhA [2]): Neither NADPH, NADP nor NAD exhibited significant binding; also recorded: failed to show appreciable binding affinity

NNC(=O)c1ccncc1 [isoniazid]
isoniazid-inhibition of mycolic acid biosynthesis (in words) [5]: marked resistance to isoniazid-inhibition

CCCCC/C=C/C(=O)SCCNC(=O)CCNC(=O)[C@H](O)C(C)(C)COP(=O)(O)OP(=O)(O)OC[C@H]1O[C@@H](n2cnc3c(N)ncnc32)[C@H](O)[C@@H]1OP(=O)(O)O [octenoyl-CoA]
Km [4]: 232 µM

InhA (Mycobacterium tuberculosis H37Rv)
Km [6]: 8 µM

octenoyl-ACP
Km [3]: < 1 µM

From patent US5702935A, “Method and compounds for inhibiting lipid biosynthesis of bacteria and plants” (priority 1994, dated 1997)
